{"source": "paper PMC10945555", "about": "“Improving Activity of New Arylurea Agents against Multidrug-Resistant and Biofilm-Producing Staphylococcus epidermidis” (ACS Medicinal Chemistry Letters, 2024)", "tested_on": "clinical Staphylococcus epidermidis strains", "assay": "Minimal bactericidal concentration (MBC), MBC/MIC", "format": "cell-based", "conditions": "Staphylococcus epidermidis", "protocol": "2.5 Evaluation of bacteriostatic/bactericidal properties […]\ndetermining MBC (Minimal Bactericidal Concentration) values. The study was conducted in accordance with the guidelines of the Clinical and Laboratory Standards Institute (CLSI).13 The MBC value was assumed to be the concentration of the compound inhibiting the growth of strains in 99.9%. Then, the value of the MBC/MIC ratio was calculated to assess its bactericidal or bacteriostatic activity. […]", "note": "Where two headings read alike, the source gives them in different places."}
{"smiles": "O=C(Nc1cccc(Cl)c1)NC1CCN(CCC(Oc2ccc(C(F)(F)F)cc2)c2cccs2)CC1", "note": "(stereo not shown) [Compound 25]", "values": [{"measurement": "MBC", "setting": "81 clinical strains (Table S5), read-out: Average of MBC", "result": 29.2, "unit": "µg/mL"}, {"measurement": "MBC", "setting": "clinical strain 1 (Table S5), read-out: MBC", "result": 25, "unit": "µg/mL"}, {"measurement": "MBC", "setting": "clinical strain 2 (Table S5), read-out: MBC", "result": 25, "unit": "µg/mL"}, {"measurement": "MBC", "setting": "clinical strain 3 (Table S5), read-out: MBC", "result": 12.5, "unit": "µg/mL"}, {"measurement": "MBC", "setting": "clinical strain 4 (Table S5), read-out: MBC", "result": 25, "unit": "µg/mL"}, {"measurement": "MBC", "setting": "clinical strain 5 (Table S5), read-out: MBC", "result": 50, "unit": "µg/mL"}, {"measurement": "MBC", "setting": "clinical strain 6 (Table S5), read-out: MBC", "result": 25, "unit": "µg/mL"}, {"measurement": "MBC", "setting": "clinical strain 7 (Table S5), read-out: MBC", "result": 25, "unit": "µg/mL"}, {"measurement": "MBC", "setting": "clinical strain 8 (Table S5), read-out: MBC", "result": 12.5, "unit": "µg/mL"}, {"measurement": "MBC", "setting": "clinical strain 9 (Table S5), read-out: MBC", "result": 50, "unit": "µg/mL"}, {"measurement": "MBC", "setting": "clinical strain 10 (Table S5), read-out: MBC", "result": 50, "unit": "µg/mL"}, {"measurement": "MBC", "setting": "clinical strain 11 (Table S5), read-out: MBC", "result": 25, "unit": "µg/mL"}, {"measurement": "MBC", "setting": "clinical strain 12 (Table S5), read-out: MBC", "result": 25, "unit": "µg/mL"}, {"measurement": "MBC", "setting": "clinical strain 13 (Table S5), read-out: MBC", "result": 25, "unit": "µg/mL"}, {"measurement": "MBC", "setting": "clinical strain 14 (Table S5), read-out: MBC", "result": 25, "unit": "µg/mL"}, {"measurement": "MBC", "setting": "clinical strain 15 (Table S5), read-out: MBC", "result": 50, "unit": "µg/mL"}, {"measurement": "MBC", "setting": "clinical strain 16 (Table S5), read-out: MBC", "result": 25, "unit": "µg/mL"}, {"measurement": "MBC", "setting": "clinical strain 17 (Table S5), read-out: MBC", "result": 1.6, "unit": "µg/mL"}, {"measurement": "MBC", "setting": "clinical strain 18 (Table S5), read-out: MBC", "result": 50, "unit": "µg/mL"}, {"measurement": "MBC", "setting": "clinical strain 19 (Table S5), read-out: MBC", "result": 12.5, "unit": "µg/mL"}, {"measurement": "MBC", "setting": "clinical strain 20 (Table S5), read-out: MBC", "result": 25, "unit": "µg/mL"}, {"measurement": "MBC", "setting": "clinical strain 21 (Table S5), read-out: MBC", "result": 25, "unit": "µg/mL"}, {"measurement": "MBC", "setting": "clinical strain 22 (Table S5), read-out: MBC", "result": 12.5, "unit": "µg/mL"}, {"measurement": "MBC", "setting": "clinical strain 23 (Table S5), read-out: MBC", "result": 25, "unit": "µg/mL"}, {"measurement": "MBC", "setting": "clinical strain 24 (Table S5), read-out: MBC", "result": 25, "unit": "µg/mL"}, {"measurement": "MBC", "setting": "clinical strain 25 (Table S5), read-out: MBC", "result": 12.5, "unit": "µg/mL"}, {"measurement": "MBC", "setting": "clinical strain 26 (Table S5), read-out: MBC", "result": 50, "unit": "µg/mL"}, {"measurement": "MBC", "setting": "clinical strain 27 (Table S5), read-out: MBC", "result": 50, "unit": "µg/mL"}, {"measurement": "MBC", "setting": "clinical strain 28 (Table S5), read-out: MBC", "result": 12.5, "unit": "µg/mL"}, {"measurement": "MBC", "setting": "clinical strain 29 (Table S5), read-out: MBC", "result": 6.25, "unit": "µg/mL"}, {"measurement": "MBC", "setting": "clinical strain 30 (Table S5), read-out: MBC", "result": 12.5, "unit": "µg/mL"}, {"measurement": "MBC", "setting": "clinical strain 31 (Table S5), read-out: MBC", "result": 25, "unit": "µg/mL"}, {"measurement": "MBC", "setting": "clinical strain 32 (Table S5), read-out: MBC", "result": 25, "unit": "µg/mL"}, {"measurement": "MBC", "setting": "clinical strain 33 (Table S5), read-out: MBC", "result": 25, "unit": "µg/mL"}, {"measurement": "MBC", "setting": "clinical strain 34 (Table S5), read-out: MBC", "result": 25, "unit": "µg/mL"}, {"measurement": "MBC", "setting": "clinical strain 35 (Table S5), read-out: MBC", "result": 25, "unit": "µg/mL"}, {"measurement": "MBC", "setting": "clinical strain 36 (Table S5), read-out: MBC", "result": 25, "unit": "µg/mL"}, {"measurement": "MBC", "setting": "clinical strain 37 (Table S5), read-out: MBC", "result": 25, "unit": "µg/mL"}, {"measurement": "MBC", "setting": "clinical strain 38 (Table S5), read-out: MBC", "result": 25, "unit": "µg/mL"}, {"measurement": "MBC", "setting": "clinical strain 39 (Table S5), read-out: MBC", "result": 12.5, "unit": "µg/mL"}, {"measurement": "MBC", "setting": "clinical strain 40 (Table S5), read-out: MBC", "result": 12.5, "unit": "µg/mL"}, {"measurement": "MBC", "setting": "clinical strain 41 (Table S5), read-out: MBC", "result": 25, "unit": "µg/mL"}, {"measurement": "MBC", "setting": "clinical strain 42 (Table S5), read-out: MBC", "result": 12.5, "unit": "µg/mL"}, {"measurement": "MBC", "setting": "clinical strain 43 (Table S5), read-out: MBC", "result": 25, "unit": "µg/mL"}, {"measurement": "MBC", "setting": "clinical strain 44 (Table S5), read-out: MBC", "result": 25, "unit": "µg/mL"}, {"measurement": "MBC", "setting": "clinical strain 45 (Table S5), read-out: MBC", "result": 25, "unit": "µg/mL"}, {"measurement": "MBC", "setting": "clinical strain 46 (Table S5), read-out: MBC", "result": 12.5, "unit": "µg/mL"}, {"measurement": "MBC", "setting": "clinical strain 47 (Table S5), read-out: MBC", "result": 25, "unit": "µg/mL"}, {"measurement": "MBC", "setting": "clinical strain 48 (Table S5), read-out: MBC", "result": 25, "unit": "µg/mL"}, {"measurement": "MBC", "setting": "clinical strain 49 (Table S5), read-out: MBC", "result": 1.6, "unit": "µg/mL"}, {"measurement": "MBC", "setting": "clinical strain 50 (Table S5), read-out: MBC", "result": 50, "unit": "µg/mL"}, {"measurement": "MBC", "setting": "clinical strain 51 (Table S5), read-out: MBC", "result": 50, "unit": "µg/mL"}, {"measurement": "MBC", "setting": "clinical strain 52 (Table S5), read-out: MBC", "result": 50, "unit": "µg/mL"}, {"measurement": "MBC", "setting": "clinical strain 53 (Table S5), read-out: MBC", "result": 50, "unit": "µg/mL"}, {"measurement": "MBC", "setting": "clinical strain 54 (Table S5), read-out: MBC", "result": 12.5, "unit": "µg/mL"}, {"measurement": "MBC", "setting": "clinical strain 55 (Table S5), read-out: MBC", "result": 50, "unit": "µg/mL"}, {"measurement": "MBC", "setting": "clinical strain 56 (Table S5), read-out: MBC", "result": 25, "unit": "µg/mL"}, {"measurement": "MBC", "setting": "clinical strain 57 (Table S5), read-out: MBC", "result": 50, "unit": "µg/mL"}, {"measurement": "MBC", "setting": "clinical strain 58 (Table S5), read-out: MBC", "result": 12.5, "unit": "µg/mL"}, {"measurement": "MBC", "setting": "clinical strain 59 (Table S5), read-out: MBC", "result": 50, "unit": "µg/mL"}, {"measurement": "MBC", "setting": "clinical strain 60 (Table S5), read-out: MBC", "result": 50, "unit": "µg/mL"}, {"measurement": "MBC", "setting": "clinical strain 61 (Table S5), read-out: MBC", "result": 25, "unit": "µg/mL"}, {"measurement": "MBC", "setting": "clinical strain 62 (Table S5), read-out: MBC", "result": 25, "unit": "µg/mL"}, {"measurement": "MBC", "setting": "clinical strain 63 (Table S5), read-out: MBC", "result": 25, "unit": "µg/mL"}, {"measurement": "MBC", "setting": "clinical strain 64 (Table S5), read-out: MBC", "result": 50, "unit": "µg/mL"}, {"measurement": "MBC", "setting": "clinical strain 65 (Table S5), read-out: MBC", "result": 50, "unit": "µg/mL"}, {"measurement": "MBC", "setting": "clinical strain 66 (Table S5), read-out: MBC", "result": 25, "unit": "µg/mL"}, {"measurement": "MBC", "setting": "clinical strain 67 (Table S5), read-out: MBC", "result": 50, "unit": "µg/mL"}, {"measurement": "MBC", "setting": "clinical strain 68 (Table S5), read-out: MBC", "result": 50, "unit": "µg/mL"}, {"measurement": "MBC", "setting": "clinical strain 69 (Table S5), read-out: MBC", "result": 25, "unit": "µg/mL"}, {"measurement": "MBC", "setting": "clinical strain 70 (Table S5), read-out: MBC", "result": 50, "unit": "µg/mL"}, {"measurement": "MBC", "setting": "clinical strain 71 (Table S5), read-out: MBC", "result": 25, "unit": "µg/mL"}, {"measurement": "MBC", "setting": "clinical strain 72 (Table S5), read-out: MBC", "result": 50, "unit": "µg/mL"}, {"measurement": "MBC", "setting": "clinical strain 73 (Table S5), read-out: MBC", "result": 6.25, "unit": "µg/mL"}, {"measurement": "MBC", "setting": "clinical strain 74 (Table S5), read-out: MBC", "result": 50, "unit": "µg/mL"}, {"measurement": "MBC", "setting": "clinical strain 75 (Table S5), read-out: MBC", "result": 50, "unit": "µg/mL"}, {"measurement": "MBC", "setting": "clinical strain 76 (Table S5), read-out: MBC", "result": 25, "unit": "µg/mL"}, {"measurement": "MBC", "setting": "clinical strain 77 (Table S5), read-out: MBC", "result": 50, "unit": "µg/mL"}, {"measurement": "MBC", "setting": "clinical strain 78 (Table S5), read-out: MBC", "result": 25, "unit": "µg/mL"}, {"measurement": "MBC", "setting": "clinical strain 79 (Table S5), read-out: MBC", "result": 6.25, "unit": "µg/mL"}, {"measurement": "MBC", "setting": "clinical strain 80 (Table S5), read-out: MBC", "result": 50, "unit": "µg/mL"}, {"measurement": "MBC", "setting": "clinical strain 81 (Table S5), read-out: MBC", "result": 3.12, "unit": "µg/mL"}]}
